One test concerns the target 5-HT5A (Homo sapiens (Human), UniProt P47898). Briefly: radioligand competition binding assay (Psychiatric Drug Screening Program). A general note: Loss of bound radioactivity is the signal in a displacement assay; it reports binding, not function.
Another test addresses D3 (Homo sapiens (Human), UniProt P35462). Described as above.
The target in the next test is D5 (Homo sapiens (Human), UniProt P21918). The description is as above.
The target of another test is D4 (Homo sapiens (Human), UniProt P21917). The test is described as above.
Another test concerns the target 5-HT1D (Homo sapiens (Human), UniProt P28221). The test is described as above.
The next test relates to 5-HT2A. To be noted: cited from earlier work.
The next test concerns the target 5-HT6 (Homo sapiens (Human), UniProt P50406). Briefly: radioligand competition binding assay (Psychiatric Drug Screening Program).
The next test addresses 5-HT1B (Homo sapiens (Human), UniProt P28222). The description is as above.
The target in another test is D2 (Homo sapiens (Human), UniProt P14416). The test is described as above.
In a further test the target is 5-HT1A (Homo sapiens (Human), UniProt P08908). The description is as above.
Another test addresses a1B (Homo sapiens (Human), UniProt P35368). Described as above.
The target of test [1] is T1, 5-HT2B (Homo sapiens (Human), UniProt P41595). As to conditions: % of the Rmax of 5-HT; cited from earlier work.
Target sequence in this assay (P41595 whole entry, looked up, species assumed): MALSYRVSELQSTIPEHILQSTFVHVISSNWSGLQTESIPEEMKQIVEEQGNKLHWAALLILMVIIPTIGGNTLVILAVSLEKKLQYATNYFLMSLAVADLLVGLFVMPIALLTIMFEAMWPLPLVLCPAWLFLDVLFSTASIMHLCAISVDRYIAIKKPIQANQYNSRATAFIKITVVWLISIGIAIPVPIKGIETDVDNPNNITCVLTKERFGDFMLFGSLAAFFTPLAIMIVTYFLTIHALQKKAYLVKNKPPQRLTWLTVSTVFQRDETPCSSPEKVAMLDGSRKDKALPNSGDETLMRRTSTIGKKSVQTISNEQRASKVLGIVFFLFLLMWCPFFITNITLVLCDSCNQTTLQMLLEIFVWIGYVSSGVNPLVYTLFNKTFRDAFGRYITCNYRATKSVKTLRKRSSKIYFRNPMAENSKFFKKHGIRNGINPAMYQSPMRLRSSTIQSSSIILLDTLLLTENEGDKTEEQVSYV
The next test deals with a1A (Homo sapiens (Human), UniProt P35348). The test is described as follows: radioligand competition binding assay (Psychiatric Drug Screening Program).
a1A, sequence (P35348 whole entry, looked up): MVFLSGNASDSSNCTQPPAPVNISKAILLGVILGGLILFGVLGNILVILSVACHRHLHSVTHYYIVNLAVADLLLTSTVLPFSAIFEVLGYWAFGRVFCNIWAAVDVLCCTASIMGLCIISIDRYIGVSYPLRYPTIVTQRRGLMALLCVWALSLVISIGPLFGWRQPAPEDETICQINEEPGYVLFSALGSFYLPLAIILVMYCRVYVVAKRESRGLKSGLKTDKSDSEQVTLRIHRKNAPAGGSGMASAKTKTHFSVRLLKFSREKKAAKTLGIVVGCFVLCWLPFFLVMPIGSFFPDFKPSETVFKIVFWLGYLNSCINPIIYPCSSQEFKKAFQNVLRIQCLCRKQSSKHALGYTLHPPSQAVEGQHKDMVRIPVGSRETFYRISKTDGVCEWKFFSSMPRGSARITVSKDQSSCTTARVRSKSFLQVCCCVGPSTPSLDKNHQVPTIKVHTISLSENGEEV
The test system of test [2] is 5-HT2C. To be noted: cited from earlier work.
Another test addresses D1 (Homo sapiens (Human), UniProt P21728). Briefly: radioligand competition binding assay (Psychiatric Drug Screening Program).
A further test has as its target a2C (Homo sapiens (Human), UniProt P18825). The description is as above.
The next test has as its target 5-HT1e (Homo sapiens (Human), UniProt P28566). The test is described as above.
The target in the next test is a2A (Homo sapiens (Human), UniProt P08913). The description is as above.
a2A, sequence (P08913 whole entry, looked up): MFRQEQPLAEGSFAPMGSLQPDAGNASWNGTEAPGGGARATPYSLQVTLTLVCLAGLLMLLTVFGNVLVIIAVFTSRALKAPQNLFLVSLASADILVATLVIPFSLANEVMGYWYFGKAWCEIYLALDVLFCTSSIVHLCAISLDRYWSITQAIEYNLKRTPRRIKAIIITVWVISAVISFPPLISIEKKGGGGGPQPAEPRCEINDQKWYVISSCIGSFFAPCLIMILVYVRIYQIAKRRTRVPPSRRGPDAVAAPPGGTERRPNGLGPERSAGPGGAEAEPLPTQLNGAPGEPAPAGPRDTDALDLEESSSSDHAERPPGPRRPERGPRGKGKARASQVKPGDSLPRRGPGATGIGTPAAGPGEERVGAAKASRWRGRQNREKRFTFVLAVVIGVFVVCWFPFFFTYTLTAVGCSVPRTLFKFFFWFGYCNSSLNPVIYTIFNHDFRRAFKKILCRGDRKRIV
The next test addresses 5-HT7 (Homo sapiens (Human), UniProt P34969). The description is as above.
Test [3] deals with T2, human 5-HT2A (Homo sapiens (Human), UniProt P28223). The test is described as follows: cell-based. As to conditions: IP assay, % of Rmax of 5-HT. The class given is cell-based.
Test [4] has as its target T2, human 5-HT2A. The test is described as follows: cell-based. As to conditions: % of the Rmax of 5-HT. It is filed as cell-based.
Test [5] has as its target T1, 5-HT2B. Briefly: fluorescence-based Ca2+ imaging assay (Eurofins), stable h5-HT2B cell line.
Target sequence in this assay (P41595 whole entry): as the sequence (P41595 whole entry, looked up, species assumed) above
Experimental: Briefly, the cell line was expanded from a freezer stock according to standard procedures. […] Cells were loaded with dye prior to testing. Media was aspirated from cells and replaced with 20 μL Dye Loading Buffer, and the cells were incubated for 30-60 minutes at 37° C. After dye loading, cells were removed from the incubator and 10 μL HBSS/20 mM HEPES was added. Cells were incubated for 30 minutes at room temperature in the dark to equilibrate plate temperature. Intermediate dilution of sample stocks was performed to generate 4× sample in assay buffer. Compound agonist activity was measured on a FLIPR Tetra (MDS). Calcium mobilization was monitored for 2 minutes and 10 μL 4× sample in HBSS/20 mM HEPES was added to the cells 5 seconds into the assay.
Test [6] has as its target T3, 5-HT2C (Homo sapiens (Human), UniProt P28335). Briefly: Ca2+/Fluo-4 assay, stable h5-HT2C-HEK293 cell line.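 Also: Agonist-induced intracellular Ca2+ rise read by Fluo-4 fluorescence in HEK293 cells stably expressing the human 5-HT2C receptor, each compound run in duplicate on three or more occasions.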 The class given is cell-based. As to conditions: agonist potency, n = 3-4; read-out: 5-HT2C EC50.
Experimental: The functional properties of the compounds were characterised at stable HEK293 cell lines stably expressing the human 5-HT2A receptor or human 5-HT2C receptor in the Ca^2+/Fluo-4 assay essentially as previously described.^10 Briefly, the cells were split into poly-D-lysine-coated black 96-well plates with clear bottoms (6×10^4 cells/well). The following day the culture medium was aspirated and the cells were incubated in 50 μl assay buffer [Hanks Buffered Saline Solution containing 20 mM HEPES, 1 mM CaCl2, 1 mM MgCl2, 2.5 mM probenecid, pH 7.4] supplemented with 6 mM Fluo-4/AM at 37° C. for 1 hour. Next, the buffer was aspirated, the cells were washed once with 100 μl assay buffer, and then 100 μl assay buffer was added to the cells (in the antagonist experiments the compound was added at this point). […] The compounds were characterized in duplicate at least three times at each cell line.
The target in another test is a2B (Homo sapiens (Human), UniProt P18089). The test is described as follows: radioligand competition binding assay (Psychiatric Drug Screening Program).
a2B, sequence (P18089 whole entry, looked up): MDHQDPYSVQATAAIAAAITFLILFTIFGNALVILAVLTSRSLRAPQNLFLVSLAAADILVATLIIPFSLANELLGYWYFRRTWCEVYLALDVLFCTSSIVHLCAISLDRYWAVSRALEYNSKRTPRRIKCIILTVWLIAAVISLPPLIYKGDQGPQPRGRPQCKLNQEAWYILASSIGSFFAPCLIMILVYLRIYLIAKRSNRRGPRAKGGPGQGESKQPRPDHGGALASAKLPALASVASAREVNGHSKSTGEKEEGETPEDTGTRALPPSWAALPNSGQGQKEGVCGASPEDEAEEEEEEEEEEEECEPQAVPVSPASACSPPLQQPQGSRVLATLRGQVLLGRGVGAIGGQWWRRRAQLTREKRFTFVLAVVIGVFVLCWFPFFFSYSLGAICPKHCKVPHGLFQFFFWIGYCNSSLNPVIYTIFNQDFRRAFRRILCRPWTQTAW
In test [7] the target is T3, 5-HT2C. The test is described as follows: biochemical. The class given is binding.
Test [8] deals with T1, 5-HT2B. Briefly: radioligand competition binding assay (Psychiatric Drug Screening Program).
Target sequence in this assay (P41595 whole entry, looked up, species assumed): as the sequence (P41595 whole entry, looked up, species assumed) above
The mark [9] stands for this setting: Rmax ± S.D., % of the Rmax of 5-HT.

Where two headings read alike, the source gives them in different places.

The source of these data is patent US11642336B2, “5-HT2A agonists for use in treatment of depression” (priority 2019, dated 2023).

a2C, sequence (P18825 whole entry, looked up): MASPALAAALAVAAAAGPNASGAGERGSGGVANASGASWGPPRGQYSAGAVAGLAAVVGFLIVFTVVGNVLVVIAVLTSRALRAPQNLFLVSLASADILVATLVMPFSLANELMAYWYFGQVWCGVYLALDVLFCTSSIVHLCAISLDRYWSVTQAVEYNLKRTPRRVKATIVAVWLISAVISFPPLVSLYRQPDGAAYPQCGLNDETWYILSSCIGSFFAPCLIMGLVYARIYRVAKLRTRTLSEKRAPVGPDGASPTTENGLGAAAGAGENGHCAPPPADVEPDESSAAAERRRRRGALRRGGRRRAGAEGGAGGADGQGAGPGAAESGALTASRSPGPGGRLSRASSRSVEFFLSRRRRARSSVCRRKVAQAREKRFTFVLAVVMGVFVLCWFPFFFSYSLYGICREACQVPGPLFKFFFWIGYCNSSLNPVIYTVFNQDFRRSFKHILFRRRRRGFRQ
a1B, sequence (P35368 whole entry, looked up): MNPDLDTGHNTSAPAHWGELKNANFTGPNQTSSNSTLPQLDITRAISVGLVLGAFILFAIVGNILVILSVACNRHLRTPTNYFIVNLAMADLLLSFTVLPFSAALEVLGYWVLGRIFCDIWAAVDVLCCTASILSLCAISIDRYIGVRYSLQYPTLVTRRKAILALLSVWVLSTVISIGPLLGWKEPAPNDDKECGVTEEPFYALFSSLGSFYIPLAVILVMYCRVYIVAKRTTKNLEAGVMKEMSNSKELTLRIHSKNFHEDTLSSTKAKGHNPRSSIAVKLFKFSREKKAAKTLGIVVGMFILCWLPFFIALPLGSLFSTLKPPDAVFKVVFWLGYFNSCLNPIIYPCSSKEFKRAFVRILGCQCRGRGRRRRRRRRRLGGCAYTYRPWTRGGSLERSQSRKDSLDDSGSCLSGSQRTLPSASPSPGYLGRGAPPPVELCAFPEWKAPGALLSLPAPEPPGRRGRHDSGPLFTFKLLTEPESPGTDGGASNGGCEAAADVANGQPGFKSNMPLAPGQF
5-HT7, sequence (P34969 whole entry, looked up, species assumed): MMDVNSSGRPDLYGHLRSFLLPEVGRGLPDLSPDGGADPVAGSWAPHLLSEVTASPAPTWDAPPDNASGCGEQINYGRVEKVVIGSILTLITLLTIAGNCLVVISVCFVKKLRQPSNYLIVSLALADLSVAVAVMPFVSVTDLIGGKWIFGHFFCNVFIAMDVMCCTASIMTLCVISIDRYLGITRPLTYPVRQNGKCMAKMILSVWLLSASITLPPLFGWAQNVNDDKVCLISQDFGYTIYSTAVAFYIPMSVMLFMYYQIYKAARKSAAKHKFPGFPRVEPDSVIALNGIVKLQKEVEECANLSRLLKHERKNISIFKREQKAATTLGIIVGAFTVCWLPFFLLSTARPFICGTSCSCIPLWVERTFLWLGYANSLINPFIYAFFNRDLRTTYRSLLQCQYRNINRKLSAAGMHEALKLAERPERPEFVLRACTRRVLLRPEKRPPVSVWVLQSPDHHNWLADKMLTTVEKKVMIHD
5-HT6, sequence (P50406 whole entry, looked up, species assumed): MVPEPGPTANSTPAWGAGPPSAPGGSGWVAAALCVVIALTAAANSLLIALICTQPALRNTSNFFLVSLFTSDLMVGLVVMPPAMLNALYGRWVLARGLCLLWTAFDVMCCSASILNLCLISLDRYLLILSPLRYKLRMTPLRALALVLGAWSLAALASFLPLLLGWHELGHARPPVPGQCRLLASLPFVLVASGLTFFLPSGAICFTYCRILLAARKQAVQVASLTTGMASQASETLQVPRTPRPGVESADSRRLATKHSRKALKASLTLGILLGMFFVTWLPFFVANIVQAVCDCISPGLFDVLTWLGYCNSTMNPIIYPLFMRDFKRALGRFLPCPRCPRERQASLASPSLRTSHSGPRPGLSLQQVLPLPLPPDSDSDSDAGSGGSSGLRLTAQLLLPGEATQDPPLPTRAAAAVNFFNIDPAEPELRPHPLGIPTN
5-HT1D, sequence (P28221 whole entry, looked up, species assumed): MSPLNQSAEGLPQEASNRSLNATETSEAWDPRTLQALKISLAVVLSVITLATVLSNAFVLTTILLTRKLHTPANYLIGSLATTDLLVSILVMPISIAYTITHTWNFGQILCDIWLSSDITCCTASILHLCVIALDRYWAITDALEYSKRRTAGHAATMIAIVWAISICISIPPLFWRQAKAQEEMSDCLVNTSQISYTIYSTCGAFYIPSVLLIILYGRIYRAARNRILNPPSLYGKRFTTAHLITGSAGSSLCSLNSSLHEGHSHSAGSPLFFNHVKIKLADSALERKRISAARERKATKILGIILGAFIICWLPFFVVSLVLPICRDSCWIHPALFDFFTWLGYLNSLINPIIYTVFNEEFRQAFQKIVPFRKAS
5-HT1e, sequence (P28566 whole entry, looked up, species assumed): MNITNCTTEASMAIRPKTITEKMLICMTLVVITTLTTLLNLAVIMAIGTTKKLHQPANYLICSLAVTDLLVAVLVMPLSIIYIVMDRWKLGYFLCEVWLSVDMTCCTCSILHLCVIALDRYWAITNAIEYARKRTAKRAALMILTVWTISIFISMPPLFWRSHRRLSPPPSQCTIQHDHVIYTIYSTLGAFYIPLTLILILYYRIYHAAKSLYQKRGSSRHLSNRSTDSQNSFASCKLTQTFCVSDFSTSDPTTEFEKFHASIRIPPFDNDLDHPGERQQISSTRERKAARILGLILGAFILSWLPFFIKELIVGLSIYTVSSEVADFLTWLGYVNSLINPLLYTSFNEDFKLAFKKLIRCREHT
5-HT5A, sequence (P47898 whole entry, looked up, species assumed): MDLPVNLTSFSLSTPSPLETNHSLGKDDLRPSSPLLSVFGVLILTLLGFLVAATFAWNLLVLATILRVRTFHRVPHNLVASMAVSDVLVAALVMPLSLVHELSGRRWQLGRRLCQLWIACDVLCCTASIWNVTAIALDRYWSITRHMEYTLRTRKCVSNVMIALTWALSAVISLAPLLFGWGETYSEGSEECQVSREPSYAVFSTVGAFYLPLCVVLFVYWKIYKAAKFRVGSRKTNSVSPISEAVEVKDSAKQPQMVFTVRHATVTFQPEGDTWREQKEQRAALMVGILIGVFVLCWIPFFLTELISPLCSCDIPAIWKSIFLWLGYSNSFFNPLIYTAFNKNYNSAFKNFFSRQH

The term Ki denotes a dissociation constant, usually derived from enzyme kinetics or from competition with a known ligand. In general, EC50 refers to the concentration giving half of the maximal effect. For `CN(C)CCc1c[nH]c2cccc(O)c12` [Psilocin, psilocin], the Ki is 70 nM on 5-HT5A; 100 nM at D3; > 10000 nM on D5; > 10000 nM at D4; 19 nM on 5-HT1D; 72 nM at 5-HT6. In addition, the Ki on 5-HT1B was 305 nM; on D2 it was > 10000 nM; at 5-HT1A it was 63 nM; on a1B, > 10000 nM; on a1A it was > 10000 nM; at D1, 20 nM. The Ki on a2C stood at 4400 nM; on 5-HT1e, 44 nM; on a2A, 2000 nM; on 5-HT7, 72 nM. Further, the EC50 with 5-HT2A (EC50 ± S.D.) is […]; in the test on 5-HT2C [2] (EC50 ± S.D.) it was 30 ± 18 nM. The “Rmax (%) 5-HT2A” value in the test with 5-HT2A (setting [9]) is listed as […]. Besides, the “Rmax (%) 5-HT2B” value at 5-HT2B [1] was 45%. The “Rmax (%) 5-HT2C” value in the test on 5-HT2C [2] (setting [9]) is given as 51 ± 37%.
Take `COc1cc(C(F)(F)F)c(OC)cc1[C@@H]1CCCNC1.Cl` [Compound 8, (S)-3-(2,5-Dimethoxy-4-(trifluoromethyl)phenyl)piperidine hydrochloride]: the “5-HT2A Rmax” value on human 5-HT2A [3] is recorded as 74%. Also, the “5-HT2A Rmax ± S.E.M” value at human 5-HT2A [4] was 47 ± 3%. Also, the Ki on 5-HT1D (read-out: Ki (nM) 5-HT1D) was 663 nM; at 5-HT6, 623 nM; at 5-HT1A, 330 nM; on a1B (read-out: Ki (nM) a1B), > 10000 nM; at a1A (read-out: Ki (nM) a1A), > 10000 nM; at a2B it was 820 nM. In addition, the Ki at 5-HT2C [7] is 42 nM; on 5-HT2B [8], 85 nM; at a2C, > 10000 nM; at 5-HT1e, 762 nM; at a2A (read-out: Ki (nM) a2A), 1400 nM; at 5-HT7, 2360 nM. Moreover, the “5-HT2B Rmax” value on 5-HT2B [5] (% of the Rmax of 5-HT) stood at 84%. Also, the EC50 was 280 nM on 5-HT2B [5] (agonist potency) and > 50000 nM on 5-HT2C [6].
